From patent US20250215052A1, “INHIBITORS OF PICK1 AND USES THEREOF” (University of Copenhagen, priority 2018, published 2025)

Test system: PICK1
Assay: Peptide accumulation in striatal neurons with PICK1 knock down or replacement
Format: cell-based, rat
Conditions: 5 nM, 1 hour
Source text: For shRNA-mediated knock down and replacement studies of PICK1, striatal neurons were transduced at 14 DIV with three different lentivirus; FUGWH1sh18GFPPICK1 (GFP-PICK1WT), FUGWH1sh18eGFP (GFP-sh18) or FUGWH1sh18deleGFP (GFP). The replacement plasmid GFP-PICK1WT expresses a short hairpin (sh18) that targets endogenous PICK1 and a resistant eGFP tagged PICK1. The GFP control vector (GFP) was created by removing the short hairpin (Holst et al., 2013, Jensen et al., 2018). Lentiviruses were produced as described previously (Rasmussen et al., 2009).
Neurons were rinsed in PBS and blocked in 0.05% Triton-X100 with 5% goat serum for 20 min-at room temperature. Subsequently, neurons were labelled with rabbit anti-DARRP32 (1:800) and chicken anti-GFP (1:2000) for 1 hour at room temperature, before incubation with 1:500 goat anti-rabbit Alexa-647 and goat anti-chicken Alexa-488 secondary antibodies.
Images for quantification of peptide were acquired with a Zeiss LSM 710 laser-scanning microscopy. Quantification of the TMR-TAT-P4-(C5)2 intensity was performed by defining each neuron as a region of interest. The mean intensity values obtained from each neuron were subsequently normalized to the average of the intensity values of the GFP transduced neurons

TAMRA-YGRKKRRQRRR-PEG4-(HWLKV)2 [TMR-TAT-P4-(C5)2]
peptide signal in sh18 + GFP-PICK1 neurons vs control (GFP): significantly increased
